Reference: US8546323B2, “Thrombospondin-1 derived peptides and treatment methods” (priority 2005, dated 2013)
“Also recorded” adds a separate entry of the source.

Key:
[1] = system: binding of TSP-1 to macrophages; experiment: cell adhesion assay: macrophage adhesion to TSP-1-coated wells, competition by peptides; format: cell-based, murine; details: wells pre-plated with TSP-1 (40 microg./ml); cells mixed with peptide (0.01M) for 30 minutes
Description: For the peptide experiment, the cells were mixed in suspension with respective peptide (0.01M) for 30 minutes prior to being introduced to TSP-1 wells.
TSP-1 has multiple potential binding sites for binding macrophages including CD44, IAP, and CD36 (FIG. 1). However there has been no previously established β2-integrin binding motif described in TSP-1. A prior-study using phage sequence assays has reported that the peptide motif D(D/E)(G/L)W (SEQ ID NO: 7) competes with pro-MMP-9 binding to β2-integrin [40]. Through a sequence search of the complete TSP-1 peptide sequence we have determined that TSP-1 has two such putative β2 integrin binding sites: one in TSR-1-(DDGW (SEQ ID NO: 3), a perfect consensus) and another in TSR-2 (DGGW SEQ ID NO: 3), a close consensus with substitution in position 2) as shown in FIG. 2. We have used cell adhesion assay to assess binding of TSP-1 to macrophages (FIG. 6). Using this assay we have been able to show the impact of the D-Xaa-G-W (SEQ ID NO: 5) motif in TSP-1 adhesion to macrophages.

TGF-β1 [2] = details: TSP-1 knockout mouse; cited from earlier work
MMP-9 [3] = experiment: synthetic peptide in tissue culture: inhibition of MMP-9 activation; format: cell-based
Description: (§1) As such we have identified the two active sites in TSP-1 important for both (1) decreasing MMP-9 activity (2) and activating TGF-β1. Using this knowledge, many peptides having plaque stabilizing properties can be designed and synthesized. We designed and synthesized a representative synthetic sequence combining these two active sites: KRFKQDDGWSPWSEW (SEQ ID NO: 10).

atherosclerotic plaque [4] = experiment: peptide infusion (alzet pump) in TSP−/−ApoE−/− mice, atherosclerotic lesion composition; format: in vivo, mouse
Description: Generally, “stabilized plaque” is evidenced by limited inflammation at the site of the lesion and/or significant fibrosis within the plaque. These features may be observed by a comparison a TSP-1 deficient control system such as the TSP−/− mice described above. Generally, stabilized plaque may be identified by a comparison of fibrosis and inflammation in treated and untreated animals. The balance between fibrosis and inflammation within the plaque has been a well accepted surrogate marker for propensity of plaque to rupture in multiple different animal models.

atherosclerotic plaque [5] = experiment: peptide infusion in apoE−/− mice, atherosclerotic plaque; format: in vivo, mouse
TGF-β1 [6] = target: T1, TGF-β1 (Mus musculus, UniProt P04202); experiment: synthetic peptide in tissue culture: TGF-β1 activation; format: cell-based
T1 construct: endogenous in cells; host or cells: Tissue culture
T1 sequence (P04202 30-278 limits assumed): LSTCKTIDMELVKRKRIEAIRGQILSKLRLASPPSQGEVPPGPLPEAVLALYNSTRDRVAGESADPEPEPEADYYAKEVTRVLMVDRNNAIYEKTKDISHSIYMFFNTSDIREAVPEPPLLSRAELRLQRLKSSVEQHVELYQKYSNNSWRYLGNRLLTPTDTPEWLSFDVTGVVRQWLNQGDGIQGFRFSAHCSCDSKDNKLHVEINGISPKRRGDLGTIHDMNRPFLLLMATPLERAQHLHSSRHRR
Description: as §1

TGF-β1 [7] = experiment: transient transfection of RAW macrophage cells, luciferase induction via TGF-β1 promoter responsive element; format: cell-based, mouse; details: RAW cells transiently transfected with TSP-1 or TSP-1 mutant; cell lysate luciferase; for mutants: fate of the TSP-1 effect
Description: (§2) (A) There are two putative β2 integrin binding domain in TSR-1 and TSR-2. Note that these two binding domains are adjacent (and overlap by one amino acid) the two binding domains for TGF-β1. We have mutated the two DxGW motifs as shown in the box. […] This effect is abolished by TSP mutants: DM and less so by Mut1. […] This affect is abolished with both TSP-1 mutants Mut1 and Mut2. In summary the DxGW motif in TSR-1 and TSR-2 appear to mediate the effects on of TSP-1 on TGF-β1 activation and MMP-9 inhibition in this cell assay system.
Furthermore, using our mutants we have observed that WSPW (SEQ ID NO: 9) motif in TSR-2 is primarily responsible for TGF-β1 activation by TSP-1.

MMP-9 [8] = experiment: transient transfection of RAW macrophage cells, active MMP-9/total MMP-9 ELISA; format: cell-based, mouse; details: RAW cells transiently transfected with TSP-1 or TSP-1 mutant; for mutants: fate of the TSP-1 effect
Description: as §2
We have shown TSP-1 binding, to macrophages through the same motif and we postulate one potential mechanism for TSP-1 inhibition, of MMP-9 activity may involve displacement of pro-MMP-9 from cell surface (FIG. 7) by competition for binding. To test this hypothesis we generated various mutants of TSP-1 involving either or both potential β2-intergin binding motif in TSP-1 (FIG. 2). […] This effect was reversed by mutation of the TSR-1 motif but less so with mutation of the TSR-2 motif.

[9] = 8-25 μg per day for 5 weeks, versus untreated TSP−/− mice

In the case of ADGW, the “interference with macrophage adhesion to TSP-1” value (from here on “interference”) [1] was “partial interference”.
In the case of DDGA (DGGW), the “interference” value [1] was “lack of interference”.
In the case of DDGW, the “interference” value [1] was “sufficient to inhibit cell adhesion to TSP-1”.
In the case of KRFK, the “rescue of TSP-1 knockout phenotype (localized alveolar inflammation and chronic pneumonia)” value (TGF-β1 [2]) is given as “rescues this phenotype”.
With KRFKQDDGWSPWSEW the “ability to inhibit activation of MMP-9” value (MMP-9 [3]) was “inhibit activation of MMP-9”, the “inflammation (macrophages) in the intimal lesion” value (atherosclerotic plaque [4]; [9]) was “decreased inflammation (macrophages) in the intimal lesion” and the “lipid deposition within the intimal lesions” value (atherosclerotic plaque [4]; [9]) was “decreased lipid deposition within the intimal lesions”. The “matrix (collagen and elastin) deposition within the lesion” value (atherosclerotic plaque [4]; [9]) was “increased matrix (as measured by collagen and elastin) deposition within the lesion”, the “rescue of the phenotype of TSP−/−ApoE−/− mice (decrease macrophages, increase matrix within the lesion)” value (atherosclerotic plaque [4]; alzet infusion pump, 8-25 μg per day for 5 weeks) was “sufficient to rescue the phenotype” and the plaque stabilizing activity (atherosclerotic plaque [4]; mouse model of atherosclerosis) was “active in stabilizing plaque”. The “plaque stabilization in presence of endogenous TSP-1” value (atherosclerotic plaque [5]) was “beneficial effect” and the “ability to activate TGF-β1” value (TGF-β1 [6]) was “activate TGF-β1”.
With “TSP-1: matricellular protein thrombospondin-1, a trimer with a chain molecular mass of 150 kda” the TGF-β1 activity (TGF-β1 [7]) was “increases TGF-β1 activity; also recorded: activates TGF-β1” and the “MMP-9 activity (active MMP-9/total MMP-9), conversion of pro-MMP-9 to the active form” value (MMP-9 [8]) was “decreases MMP-9 activity; also recorded: decreased conversion of pro-MPP-9 to the active form”.
